What all share (test): NCI-60 cell line screen, 48 h
For assay [1], the system named is 786-0 renal.
The test system of assay [2] is CAKI-1 renal.
Assay [3] has as its system HCT-116 colon.
In assay [4] the test system is K-562 leukemia.
Assay [5] relates to NCI-H460 lung.
Assay [6] deals with NCI-H522 lung.
The test system of assay [7] is OVCAR-4 ovarian.
The test system of assay [8] is SK-MEL-28 melanoma.
The test system of assay [9] is SNB-19 CNS.
Assay [10] deals with UACC-62 melanoma.

Where “and” joins values, the source holds several entries; their conditions need not be identical. Identical values can stand only once.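 Growth conditions: 96-well plates. Treatment: test compound, 48 hours, 5 concentrations. Analysis: linear interpolation between bracketing concentrations; unreached endpoints set to highest concentration. GI50 is the concentration that inhibits growth by half. TGI denotes the concentration required for complete inhibition of growth.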

In the case of `c1ccc(P(=Nc2ccccc2N=P(c2ccccc2)(c2ccccc2)c2ccccc2)(c2ccccc2)c2ccccc2)cc1`, the TGI in assay [1] is 11.3 µM; in assay [2] it was 3.72 µM; in assay [3], 9.64 µM; in assay [4], 11.2 µM; in [5], 11 µM; in [6], 2.24 µM. For the same compound, the TGI in assay [7] is 14.9 µM; in assay [8] it was over 100 µM; in [9] it was 16.9 µM; in [10], 11.7 µM.

Consider `CC(C)(C)CN1CCn2c(nc3c(N)nccc32)S1`, for which the GI50 in [1] was 21 µM; in [2], 25.3 µM; in [3] it was 4.61 µM; in assay [4], 4.64 µM; in [5], 4.25 µM; in assay [6], 13.5 µM. Moreover, the GI50 was 13.6 µM in [7], 13.5 µM in assay [8], 32.8 µM in [9] and 13.7 µM in [10]. Further, the TGI is over 100 µM in assay [1]; over 100 µM in assay [2]; 17.1 µM in [3]; 67.7 µM in assay [4]; 17.3 µM in assay [5]; 31.6 µM in [6]. For the same compound, the TGI is 40.1 µM in assay [7], 29.7 µM in [8], over 100 µM in [9] and 88.5 µM in [10].

Take `Nc1ccc(-c2nc3ccccc3[nH]2)c2ccccc12`: the GI50 in assay [1] is 4.02 µM; in assay [2], 2.23 µM; in [3], 3.3 µM; in [4] it was 2.54 µM; in assay [5], 3.9 µM; in assay [6] it was 3.14 µM. Besides, the GI50 in [7] is 8.26 µM; in assay [8], 4.27 µM; in assay [9], 3.57 µM; in assay [10], 7.51 µM. Also, the TGI is over 41.4 µM in [1]; over 53.7 µM in assay [2]; 12.6 µM in assay [3]; over 100 µM in [4]; over 100 µM in [5]; 17.1 µM in assay [6]. The TGI in assay [7] was over 72.5 µM; in [8] it was over 62.1 µM; in assay [9] it was over 100 µM; in assay [10], over 27.6 µM.

On to `C[CH2][Pb]([CH2]C)([CH2]C)[O]C(=O)c1ccc2ccccc2n1`, for which the GI50 in [1], in assay [2], in assay [3], in assay [4], in assay [5] and in [6] was over 10 µM each time. Besides, the GI50 in assay [7], in assay [8], in assay [9] and in assay [10] was over 10 µM throughout. Besides, the TGI in [1], in [2], in [3], in [4], in assay [5] and in assay [6] was over 10 µM each time. Besides, the TGI in assay [7], in assay [8], in assay [9] and in assay [10] was over 10 µM throughout.

`C[C@@H]1O[C@@H](O[C@H]2CC[C@@]3(C)[C@H](CCC4[C@@H]3C(O)C[C@]3(C)[C@@H](c5ccc(=O)oc5)CC[C@]43O)C2)[C@H](O)[C@H](O)[C@H]1O` (stereo partly specified): the GI50 was 0.00409 µM in assay [1]; 0.0042 µM in assay [2]; under 0.00325 µM in [3]; 0.00984 µM in assay [4]; under 0.00325 µM in assay [5]; under 0.00325 µM in assay [6]. Moreover, the GI50 was under 0.00325 µM in assay [7], 0.0062 µM in assay [8], 0.0108 µM in assay [9] and 0.00698 µM in assay [10]. The TGI in assay [1] is 0.0169 µM; in assay [2] it was 0.0154 µM; in [3], 0.00544 µM; in [4] it was 0.879 µM; in assay [5], 0.00509 µM; in [6] it was 0.0035 µM. For the same compound, the TGI in [8] worked out at 0.0119 µM; in assay [9], 0.0357 µM; in assay [10], 0.0153 µM.

In the case of `CC1=CC(=O)C(O)C2(C)C1CC(O)C13COC4(C)C(OC(=O)C41)C(O)C23` (stereo unspecified), the GI50 in assay [1] was 5.13 µM; in assay [2], 10.4 µM; in assay [3], 4.11 µM; in assay [4], 5.48 µM; in [5], 5.2 µM; in assay [6], 6.65 µM. Further, the GI50 in assay [7] was 15 µM; in assay [8], 7.32 µM; in assay [9] it was 7.94 µM; in [10], 8.02 µM. For the same compound, the TGI in assay [1] was 27.4 µM; in [2] it was 54.4 µM; in assay [3], 19.3 µM; in assay [4], over 100 µM; in assay [5] it was 62.7 µM; in [6], 30.5 µM. Moreover, the TGI is over 100 µM in assay [7], over 100 µM in assay [8], over 100 µM in assay [9] and 32.3 µM in assay [10].

Regarding `CN1CCN(CC(O)COc2c(Br)c(Br)c(Br)c3c2OC(C)(C)C3)CC1` (stereo unspecified), the GI50 in assay [1] is 3.08 µM; in [2] it was 14.5 µM; in assay [3] it was 5.16 µM; in assay [4], 2.06 µM; in assay [5] it was 3.1 µM; in assay [6] it was 6.15 µM. In addition, the GI50 in assay [7] is 13.7 µM; in assay [8] it was 1.85 µM; in assay [9], 12.7 µM; in assay [10] it was 1.83 µM. The TGI is 14.6 µM in assay [1]; 38.1 µM in [2]; over 100 µM in [3]; over 100 µM in [4]; 10.6 µM in [5]; 28.5 µM in assay [6]. For the same compound, the TGI in assay [7] turned out to be 35.1 µM; in assay [8], 3.48 µM; in assay [9], 42.9 µM; in assay [10], 3.29 µM.

For the compound `C/C1=C\[C@@H](O)C(=O)/C=C/C=C\c2csc(n2)[C@@H](C)NC(=O)C[C@@]2(CC1)S(=O)SC(=O)[C@]2(C)O` (stereo partly specified), the TGI was 0.0354 µM and 0.0108 µM in [1]; 0.0191 µM in assay [2]; 0.0259 µM in [3]; over 100 µM in assay [4]; 0.27 µM and 0.327 µM in [5]; 0.0105 µM in [6]. Further, the TGI in [7] is 0.0793 µM; in [8], 0.0727 µM and 0.0168 µM; in assay [9] it was 0.511 µM and 2.87 µM; in [10], 0.0487 µM. Further, the GI50 is 0.0045 µM in assay [3] and 1.15 µM in assay [9].

(Values after PubChem BioAssay (NCI).)
